# According to US7863449B2, “Modulators of muscarinic receptors” (Vertex Pharmaceuticals Incorporated, priority 2004, dated 2011):
# Where a name gives a salt, the structure may show the parent alone.
# Experiments:
# M1 muscarinic receptor = molecular target: T1, M1 muscarinic receptor (Homo sapiens, UniProt P11229); experiment: Functional mobilization of intracellular calcium (FLIPR), M1-CHO cells; type: cell-based; details: for Emax: 100% efficacy is the maximum response obtained using Carbachol as a control; for M1 Activity: M1-CHO cells, FLIPR calcium mobilization
# T1 construct: expressed in transfected cells; host or cells: CHO (M1-CHO)
# T1 sequence (P11229 1-460): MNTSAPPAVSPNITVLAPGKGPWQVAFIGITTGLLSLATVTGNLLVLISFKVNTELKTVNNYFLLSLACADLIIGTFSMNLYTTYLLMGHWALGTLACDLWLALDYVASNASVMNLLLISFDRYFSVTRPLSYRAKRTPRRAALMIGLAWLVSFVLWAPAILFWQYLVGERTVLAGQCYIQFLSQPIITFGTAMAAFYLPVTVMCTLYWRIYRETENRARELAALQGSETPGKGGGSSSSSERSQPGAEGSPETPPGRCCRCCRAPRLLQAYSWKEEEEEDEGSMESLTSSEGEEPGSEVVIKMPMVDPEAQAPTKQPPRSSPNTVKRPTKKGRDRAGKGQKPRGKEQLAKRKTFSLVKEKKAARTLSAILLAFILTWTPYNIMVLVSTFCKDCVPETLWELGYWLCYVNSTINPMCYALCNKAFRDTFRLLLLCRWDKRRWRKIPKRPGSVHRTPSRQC
# Outline: (§1)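 CHO cells expressing M1 or M4, loaded with Fluo-3 AM or Calcium 3 dye with 1 mM probenecid, 0.5% DMSO final. Agonist mode: compound added directly; antagonist mode: 15 min pre-incubation (or co-application) before carbachol at EC80. Fluorescence recorded 60 s on FLIPR.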
# M4 muscarinic receptor = molecular target: T2, M4 muscarinic receptor (Homo sapiens, UniProt P08173); experiment: Functional mobilization of intracellular calcium (FLIPR), M4-CHO cells; type: cell-based; details: for Emax: 100% efficacy is the maximum response obtained using Carbachol as a control; for M4 Activity: M4-CHO cells, FLIPR calcium mobilization
# T2 construct: expressed in transfected cells; host or cells: CHO (M4-CHO)
# T2 sequence (P08173 1-479): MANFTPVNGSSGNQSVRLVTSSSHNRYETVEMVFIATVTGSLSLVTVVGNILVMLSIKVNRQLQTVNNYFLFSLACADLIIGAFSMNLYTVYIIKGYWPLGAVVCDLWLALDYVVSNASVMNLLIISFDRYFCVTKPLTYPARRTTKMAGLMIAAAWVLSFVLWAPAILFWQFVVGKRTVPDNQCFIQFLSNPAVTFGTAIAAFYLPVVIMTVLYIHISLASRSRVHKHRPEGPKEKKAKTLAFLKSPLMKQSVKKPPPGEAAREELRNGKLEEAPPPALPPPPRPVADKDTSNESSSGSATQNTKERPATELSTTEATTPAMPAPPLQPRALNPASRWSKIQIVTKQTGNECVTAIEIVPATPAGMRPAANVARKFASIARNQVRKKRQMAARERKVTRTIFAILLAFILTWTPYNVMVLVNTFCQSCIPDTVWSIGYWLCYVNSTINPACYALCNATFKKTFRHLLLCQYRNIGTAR
# Outline: as §1
SMILES,Emax (M1 muscarinic receptor),M1 Activity (M1 muscarinic receptor),Emax (M4 muscarinic receptor),M4 Activity (M4 muscarinic receptor)
CCOC(=O)N1CCC(N2CCC3(CC2)CN(C2CCCCC2C)Cc2ccccc23)CC1 (stereo not drawn) [compound 123],25 to 100%,+++ (activity was measured to be less than 1.0 μM),25 to 100%,+++ (activity was measured to be less than 1.0 μM)
CCOC(=O)N1CCC(N2CCC3(CC2)CN(C(=O)N(C)C)Cc2ccccc23)CC1 [compound 204],25 to 100%,+++ (activity was measured to be less than 1.0 μM),25 to 100%,+++ (activity was measured to be less than 1.0 μM)
CCOC(=O)N1C2CCC1CC(N1CCC3(CC1)CN(S(=O)(=O)c1cccc(F)c1)Cc1ccccc13)C2 (stereo not drawn) [compound 324],25 to 100%,+++ (activity was measured to be less than 1.0 μM),25 to 100%,+++ (activity was measured to be less than 1.0 μM)
CC(=O)N1Cc2ccccc2C2(CCN(Cc3ccccc3C#N)CC2)C1 [compound 322],< 25%,+ (activity was measured to be greater than 5.0 μM),< 25%,+ (activity was measured to be greater than 5.0 μM)
"CCCOC(=O)N1CCC(N2CCC3(CC2)CN(C(C)=O)Cc2ccccc23)CC1 [compound 129, Propyl 4-(2-acetyl-2,3-dihydro-1H-spiro[isoquinoline-4,4′-piperidine]-1′-yl)piperidine-1-carboxylate hydrochloride]",25 to 100%,+++ (activity was measured to be less than 1.0 μM),25 to 100%,+++ (activity was measured to be less than 1.0 μM)
CCCC(=O)N1Cc2ccccc2C2(CCN(C3CCN(C(=O)OCC)CC3)CC2)C1 [compound 185],25 to 100%,+++ (activity was measured to be less than 1.0 μM),25 to 100%,+++ (activity was measured to be less than 1.0 μM)
"CN(C)C(=O)N1Cc2ccccc2C2(CCN(C3CC4CCC(C3)N4C(=O)O[C@@H]3CCOC3)CC2)C1 (stereo partly drawn) [compound 48, (R)-tetrahydrofuran-3-yl 3-(2-(dimethylcarbamoyl)-2,3-dihydro-1H -spiro[isoquinoline-4,4′-piperidine]-1′-yl)-8-azabicyclo[3.2.1]octane-8-carboxylate]",25 to 100%,+++ (activity was measured to be less than 1.0 μM),25 to 100%,+++ (activity was measured to be less than 1.0 μM)
CC(=O)N1Cc2ccccc2C2(CCN(Cc3ccccc3F)CC2)C1 [compound 199],< 25%,+ (activity was measured to be greater than 5.0 μM),25 to 100%,+ (activity was measured to be greater than 5.0 μM)
CCCOC(=O)N1C2CCC1CC(N1CCC3(CC1)CN(C(=O)N(C)C)Cc1ccccc13)C2 (stereo not drawn) [compound 7],25 to 100%,+++ (activity was measured to be less than 1.0 μM),25 to 100%,+++ (activity was measured to be less than 1.0 μM)
COCCOC(=O)N1Cc2ccccc2C2(CCN(C3CC4CCC(C3)N4C(=O)OCCOC)CC2)C1 (stereo not drawn) [compound 96],25 to 100%,+++ (activity was measured to be less than 1.0 μM),25 to 100%,+++ (activity was measured to be less than 1.0 μM)
COc1ccc(CN2CCC3(CC2)CN(C(C)=O)Cc2ccccc23)cn1 [compound 37],25 to 100%,+ (activity was measured to be greater than 5.0 μM),< 25%,+ (activity was measured to be greater than 5.0 μM)
COCCOC(=O)N1CCC(CN2CCC3(CC2)CN(C(C)=O)Cc2ccccc23)CC1 [compound 207],25 to 100%,+ (activity was measured to be greater than 5.0 μM),25 to 100%,++ (activity was measured to be from 1.0 μM to 5.0 μM)
CS(=O)(=O)N1Cc2ccccc2C2(CCN(C3CC4CCC(C3)N4C(=O)O[C@@H]3CCOC3)CC2)C1 (stereo partly drawn) [compound 222],25 to 100%,+++ (activity was measured to be less than 1.0 μM),25 to 100%,+++ (activity was measured to be less than 1.0 μM)
CCOC(=O)N1CC(CN2CCC3(CC2)CN(C(C)=O)Cc2ccccc23)C1 [compound 1],25 to 100%,++ (activity was measured to be from 1.0 μM to 5.0 μM),< 25%,++ (activity was measured to be from 1.0 μM to 5.0 μM)
CCCS(=O)(=O)N1Cc2ccccc2C2(CCN(C3CC4CCC(C3)N4C(=O)O[C@@H]3CCOC3)CC2)C1 (stereo partly drawn) [compound 24],25 to 100%,+++ (activity was measured to be less than 1.0 μM),25 to 100%,+++ (activity was measured to be less than 1.0 μM)
CCOC(=O)N1C2CCC1CC(N1CCC3(CC1)CN(S(=O)(=O)c1cccc(Cl)c1)Cc1ccccc13)C2 (stereo not drawn) [compound 253],25 to 100%,+++ (activity was measured to be less than 1.0 μM),25 to 100%,+++ (activity was measured to be less than 1.0 μM)
CCOC(=O)N1CCC(N2CCC3(CC2)CN(C(=O)CC(F)(F)F)Cc2ccccc23)CC1 [compound 209],25 to 100%,+++ (activity was measured to be less than 1.0 μM),25 to 100%,+++ (activity was measured to be less than 1.0 μM)
CC(=O)N1Cc2ccccc2C2(CCN(C3CCCCC3)CC2)C1 [compound 294],25 to 100%,+++ (activity was measured to be less than 1.0 μM),25 to 100%,+++ (activity was measured to be less than 1.0 μM)
CCOC(=O)N1CCC(CN2CCC3(CC2)CN(C(=O)OC2CCC2)Cc2ccccc23)CC1 [compound 315],25 to 100%,+++ (activity was measured to be less than 1.0 μM),25 to 100%,+++ (activity was measured to be less than 1.0 μM)
CCOC(=O)N1CCC(CN2CCC3(CC2)CN(C(=O)c2cccs2)Cc2ccccc23)CC1 [compound 124],25 to 100%,+++ (activity was measured to be less than 1.0 μM),25 to 100%,+++ (activity was measured to be less than 1.0 μM)
CCOC(=O)N1CC[C@@H](CN2CCC3(CC2)CN(C(C)=O)Cc2ccccc23)C1 [compound 216],25 to 100%,+++ (activity was measured to be less than 1.0 μM),25 to 100%,+++ (activity was measured to be less than 1.0 μM)
Cc1cc(C(=O)N2Cc3ccccc3C3(CCN(C4CC5CCC(C4)N5C(=O)O[C@@H]4CCOC4)CC3)C2)nn1C (stereo partly drawn) [compound 351],25 to 100%,+++ (activity was measured to be less than 1.0 μM),25 to 100%,+++ (activity was measured to be less than 1.0 μM)
O=C(C1CC1)N1Cc2ccccc2C2(CCN(C3CC4CCC(C3)N4C(=O)OC3CCC3)CC2)C1 (stereo not drawn) [compound 102],25 to 100%,+++ (activity was measured to be less than 1.0 μM),25 to 100%,+++ (activity was measured to be less than 1.0 μM)
CCOC(=O)N1C2CCC1CC(N1CCC3(CC1)CN(C(=O)c1snnc1C)Cc1ccccc13)C2 (stereo not drawn) [compound 179],25 to 100%,+++ (activity was measured to be less than 1.0 μM),25 to 100%,+++ (activity was measured to be less than 1.0 μM)
CCOC(=O)N1CCC(CN2CCC3(CC2)CN(C(=O)OC2CCCC2)Cc2ccccc23)CC1 [compound 263],25 to 100%,+++ (activity was measured to be less than 1.0 μM),25 to 100%,+++ (activity was measured to be less than 1.0 μM)
CCOC(=O)N1CCC(CN2CCC3(CC2)CN(C(=O)c2snnc2C)Cc2ccccc23)CC1 [compound 143],25 to 100%,+++ (activity was measured to be less than 1.0 μM),25 to 100%,+++ (activity was measured to be less than 1.0 μM)
CCOC(=O)N1C2CCC1CC(N1CCC3(CC1)CN(c1cccc(Cl)c1)Cc1ccccc13)C2 (stereo not drawn) [compound 136],> 100%,+++ (activity was measured to be less than 1.0 μM),25 to 100%,+++ (activity was measured to be less than 1.0 μM)
